Literature values, collected in patent US9163009B2, “Salts of raltegravir” (priority 2011, dated 2015).

How the values were obtained:
[1] = water
[2] = in vivo

Row | SMILES | aqueous solubility [1] | bioavailability over raltegravir [2]
1 | Cc1nnc(C(=O)NC(C)(C)c2nc(C(=O)NCc3ccc(F)cc3)c(O)c(=O)n2C)o1 [Raltegravir, N-(4-fluorobenzyl)-5-hydroxy-1-methyl-2-(1-methyl-1-{[(5-methyl-1,3,4-oxadiazol-2-yl)carbonyl]amino}ethyl)-6-oxo-1,6-dihydropyrimidine-4-carboxamide] | poor | –
2 | Cc1nnc(C(=O)NC(C)(C)c2nc(C(=O)NCc3ccc(F)cc3)c([O-])c(=O)n2C)o1.[K+] [Form 1] | – | superior bioavailability
3 | Cc1nnc(C(=O)NC(C)(C)c2nc(C(=O)NCc3ccc(F)cc3)c([O-])c(=O)n2C)o1.[K+] [potassium salt of raltegravir] | significantly more soluble | –
